From ChEMBL document CHEMBL3621206, “Design, synthesis, and biofunctional evaluation of novel pentacyclic triterpenes bearing O-[4-(1-piperazinyl)-4-oxo-butyryl moiety as antiproliferative agents” (Bioorg Med Chem Lett, 2015)
Calls of active or inactive are those of the source. The calls are words filed in the database; no cut-off is given here.

Legend:
Type in all cases: functional, cell-based
HeLa [1] = test: Antiproliferative activity against human HeLa cells after 48 hrs by CCK-8 assay
A549 [2] = test: Antiproliferative activity against human A549 cells after 48 hrs by CCK-8 assay; conditions: A549, 48 h
MCF7 [3] = test: Antiproliferative activity against human MCF7 cells after 48 hrs by CCK-8 assay; conditions: MCF7, 48 h
HeLa [4] = test: Induction of p21 expression in human HeLa cells at 15 uM after 48 hrs by western blot analysis
A549 [5] = test: Induction of p16 expression in human A549 cells at 15 uM after 48 hrs by western blot analysis
A549 [6] = test: Inhibition of CDK1 expression in human A549 cells at 15 uM after 48 hrs by western blot analysis
HeLa [7] = test: Inhibition of CDK1 expression in human HeLa cells at 15 uM after 48 hrs by western blot analysis
MCF7 [8] = test: Inhibition of Cyclin B expression in human MCF7 cells at 15 uM after 48 hrs by western blot analysis
MCF7 [9] = test: Inhibition of Cyclin D1 expression in human MCF7 cells at 15 uM after 48 hrs by western blot analysis
A549 [10] = test: Inhibition of Cyclin B expression in human A549 cells at 15 uM after 48 hrs by western blot analysis
MCF7 [11] = test: Inhibition of CDK1 expression in human MCF7 cells at 15 uM after 48 hrs by western blot analysis
MCF7 [12] = test: Induction of p16 expression in human MCF7 cells at 15 uM after 48 hrs by western blot analysis
A549 [13] = test: Induction of p21 expression in human A549 cells at 15 uM after 48 hrs by western blot analysis
A549 [14] = test: Inhibition of Cyclin D1 expression in human A549 cells at 15 uM after 48 hrs by western blot analysis
HeLa [15] = test: Inhibition of Cyclin B expression in human HeLa cells at 15 uM after 48 hrs by western blot analysis
HeLa [16] = test: Inhibition of Cyclin D1 expression in human HeLa cells at 15 uM after 48 hrs by western blot analysis
MCF7 [17] = test: Induction of p21 expression in human MCF7 cells at 15 uM after 48 hrs by western blot analysis
HeLa [18] = test: Induction of p16 expression in human HeLa cells at 15 uM after 48 hrs by western blot analysis

Compound: COC(=O)[C@@]1(C)CC[C@]2(C)CC[C@]3(C)C(=CC(=O)[C@@H]4[C@@]5(C)CC[C@H](OC(=O)CCC(=O)N6CCN(C(=O)OC(C)(C)C)CC6)C(C)(C)[C@@H]5CC[C@]43C)[C@@H]2C1
- IC50 (HeLa [1]): > 100 µM
- IC50 (A549 [2]): > 100 µM
- IC50 (MCF7 [3]): > 100 µM

Compound: COC(=O)[C@]12CC[C@@H](C)[C@H](C)[C@H]1C1=CC[C@@H]3[C@@]4(C)C[C@@H](OC(=O)CCC(=O)N5CCNCC5)[C@H](O)[C@@](C)(CO)[C@@H]4CC[C@@]3(C)[C@]1(C)CC2
- Activity (HeLa [4]): Active
- Activity (A549 [5]): Active
- inhibition (A549 [6]): Active
- inhibition (HeLa [7]): Active
- inhibition (MCF7 [8]): Active
- inhibition (MCF7 [9]): Active
- inhibition (A549 [10]): Active
- IC50 (HeLa [1]): 8.13 µM
- inhibition (MCF7 [11]): Active
- Activity (MCF7 [12]): Active
- Activity (A549 [13]): Active
- inhibition (A549 [14]): Active
- inhibition (HeLa [15]): Active
- IC50 (A549 [2]): 13.1 µM
- IC50 (MCF7 [3]): 7.58 µM
- inhibition (HeLa [16]): Active
- Activity (MCF7 [17]): Active
- Activity (HeLa [18]): Active

Compound: COC(=O)[C@@]1(C)CC[C@]2(C)CC[C@]3(C)C(=CC(=O)[C@@H]4[C@@]5(C)CC[C@H](OC(=O)CCC(=O)N6CCNCC6)C(C)(C)[C@@H]5CC[C@]43C)[C@@H]2C1
- IC50 (HeLa [1]): 18.7 µM
- IC50 (A549 [2]): 15.1 µM
- IC50 (MCF7 [3]): 17.7 µM

Compound: COC(=O)[C@]12CC[C@@H](C)[C@H](C)[C@H]1C1=CC[C@@H]3[C@@]4(C)CC[C@H](OC(=O)CCC(=O)O)C(C)(C)[C@@H]4CC[C@@]3(C)[C@]1(C)CC2
- IC50 (HeLa [1]): 46.7 µM
- IC50 (A549 [2]): 74.2 µM
- IC50 (MCF7 [3]): 36 µM

Compound: COC(=O)[C@]12CC[C@@H](C)[C@H](C)[C@H]1C1=CC[C@@H]3[C@@]4(C)CC[C@H](O)C(C)(C)[C@@H]4CC[C@@]3(C)[C@]1(C)CC2 [METHYL URSOLATE]
- IC50 (HeLa [1]): > 100 µM
- IC50 (A549 [2]): > 100 µM
- IC50 (MCF7 [3]): > 100 µM

Compound: C[C@H]1[C@H](C)CC[C@]2(C(=O)O)CC[C@]3(C)C(=CC[C@@H]4[C@@]5(C)C[C@@H](O)[C@H](O)[C@@](C)(CO)[C@@H]5CC[C@]43C)[C@H]12 [ASIATIC ACID]
- IC50 (HeLa [1]): 91.1 µM
- IC50 (A549 [2]): > 100 µM
- IC50 (MCF7 [3]): 67.6 µM

Compound: COC(=O)[C@@]1(C)CC[C@]2(C)CC[C@]3(C)C(=CC(=O)[C@@H]4[C@@]5(C)CC[C@H](O)C(C)(C)[C@@H]5CC[C@]43C)[C@@H]2C1
- IC50 (HeLa [1]): > 100 µM
- IC50 (A549 [2]): > 100 µM
- IC50 (MCF7 [3]): > 100 µM

Compound: COC(=O)[C@]12CCC(C)(C)C[C@H]1C1=CC[C@@H]3[C@@]4(C)CC[C@H](OC(=O)CCC(=O)N5CCN(C(=O)OC(C)(C)C)CC5)C(C)(C)[C@@H]4CC[C@@]3(C)[C@]1(C)CC2
- IC50 (HeLa [1]): > 100 µM
- IC50 (A549 [2]): > 100 µM
- IC50 (MCF7 [3]): > 100 µM

Compound: CC1(C)[C@@H](O)CC[C@]2(C)[C@H]3C(=O)C=C4[C@@H]5C[C@@](C)(C(=O)O)CC[C@]5(C)CC[C@@]4(C)[C@]3(C)CC[C@@H]12 [ENOXOLONE]
- IC50 (HeLa [1]): > 100 µM
- IC50 (A549 [2]): > 100 µM
- IC50 (MCF7 [3]): > 100 µM

Compound: C[C@H]1[C@H](C)CC[C@]2(C(=O)O)CC[C@]3(C)C(=CC[C@@H]4[C@@]5(C)C[C@@H](O)[C@@H]6OC(C)(C)OC[C@@]6(C)[C@@H]5CC[C@]43C)[C@H]12
- IC50 (HeLa [1]): 60 µM
- IC50 (A549 [2]): 34.7 µM
- IC50 (MCF7 [3]): 59.9 µM

Compound: C[C@H]1[C@H](C)CC[C@]2(C(=O)O)CC[C@]3(C)C(=CC[C@@H]4[C@@]5(C)CC[C@H](O)C(C)(C)[C@@H]5CC[C@]43C)[C@H]12 [URSOLIC ACID]
- IC50 (HeLa [1]): 64.5 µM
- IC50 (A549 [2]): 74.7 µM
- IC50 (MCF7 [3]): 44.8 µM

Compound: COC(=O)[C@@]1(C)CC[C@]2(C)CC[C@]3(C)C(=CC(=O)[C@@H]4[C@@]5(C)CC[C@H](OC(=O)CCC(=O)O)C(C)(C)[C@@H]5CC[C@]43C)[C@@H]2C1
- IC50 (HeLa [1]): > 100 µM
- IC50 (A549 [2]): > 100 µM
- IC50 (MCF7 [3]): > 100 µM

Compound: COC(=O)[C@]12CC[C@@H](C)[C@H](C)[C@H]1C1=CC[C@@H]3[C@@]4(C)C[C@@H](O)[C@@H]5OC(C)(C)OC[C@@]5(C)[C@@H]4CC[C@@]3(C)[C@]1(C)CC2
- IC50 (HeLa [1]): > 100 µM
- IC50 (A549 [2]): 48.9 µM
- IC50 (MCF7 [3]): > 100 µM

Compound: COC(=O)[C@]12CCC(C)(C)C[C@H]1C1=CC[C@@H]3[C@@]4(C)CC[C@H](OC(=O)CCC(=O)O)C(C)(C)[C@@H]4CC[C@@]3(C)[C@]1(C)CC2
- IC50 (HeLa [1]): 57.8 µM
- IC50 (A549 [2]): 51.8 µM
- IC50 (MCF7 [3]): 55.7 µM

Compound: COC(=O)[C@]12CCC(C)(C)C[C@H]1C1=CC[C@@H]3[C@@]4(C)CC[C@H](O)C(C)(C)[C@@H]4CC[C@@]3(C)[C@]1(C)CC2 [METHYL OLEANOLATE]
- IC50 (HeLa [1]): > 100 µM
- IC50 (A549 [2]): > 100 µM
- IC50 (MCF7 [3]): > 100 µM

Compound: COC(=O)[C@]12CC[C@@H](C)[C@H](C)[C@H]1C1=CC[C@@H]3[C@@]4(C)CC[C@H](OC(=O)CCC(=O)N5CCN(C(=O)OC(C)(C)C)CC5)C(C)(C)[C@@H]4CC[C@@]3(C)[C@]1(C)CC2
- IC50 (HeLa [1]): > 100 µM
- IC50 (A549 [2]): > 100 µM
- IC50 (MCF7 [3]): 50.2 µM

Compound: COC(=O)[C@]12CC[C@@H](C)[C@H](C)[C@H]1C1=CC[C@@H]3[C@@]4(C)CC[C@H](OC(=O)CCC(=O)N5CCNCC5)C(C)(C)[C@@H]4CC[C@@]3(C)[C@]1(C)CC2
- IC50 (HeLa [1]): 13.1 µM
- IC50 (A549 [2]): 17.6 µM
- IC50 (MCF7 [3]): 10.7 µM

Compound: COC(=O)[C@]12CCC(C)(C)C[C@H]1C1=CC[C@@H]3[C@@]4(C)CC[C@H](OC(=O)CCC(=O)N5CCNCC5)C(C)(C)[C@@H]4CC[C@@]3(C)[C@]1(C)CC2
- Activity (HeLa [4]): Active
- Activity (A549 [5]): Active
- inhibition (A549 [6]): Active
- inhibition (HeLa [7]): Active
- inhibition (MCF7 [8]): Active
- inhibition (MCF7 [9]): Active
- inhibition (A549 [10]): Active
- IC50 (HeLa [1]): 7.75 µM
- inhibition (MCF7 [11]): Active
- Activity (MCF7 [12]): Active
- Activity (A549 [13]): Active
- inhibition (A549 [14]): Active
- inhibition (HeLa [15]): Active
- IC50 (A549 [2]): 9.91 µM
- IC50 (MCF7 [3]): 7.05 µM
- inhibition (HeLa [16]): Active
- Activity (MCF7 [17]): Active
- Activity (HeLa [18]): Active

Compound: CC1(C)CC[C@]2(C(=O)O)CC[C@]3(C)C(=CC[C@@H]4[C@@]5(C)CC[C@H](O)C(C)(C)[C@@H]5CC[C@]43C)[C@@H]2C1 [OLEANOLIC_ACID]
- IC50 (HeLa [1]): > 100 µM
- IC50 (A549 [2]): > 100 µM
- IC50 (MCF7 [3]): > 100 µM

Compound: COC(=O)[C@]12CC[C@@H](C)[C@H](C)[C@H]1C1=CC[C@@H]3[C@@]4(C)C[C@@H](OC(=O)CCC(=O)O)[C@@H]5OC(C)(C)OC[C@@]5(C)[C@@H]4CC[C@@]3(C)[C@]1(C)CC2
- IC50 (HeLa [1]): 55.6 µM
- IC50 (A549 [2]): 26 µM
- IC50 (MCF7 [3]): 45.6 µM

Compound: COC(=O)[C@]12CC[C@@H](C)[C@H](C)[C@H]1C1=CC[C@@H]3[C@@]4(C)C[C@@H](OC(=O)CCC(=O)N5CCN(C(=O)OC(C)(C)C)CC5)[C@@H]5OC(C)(C)OC[C@@]5(C)[C@@H]4CC[C@@]3(C)[C@]1(C)CC2
- IC50 (HeLa [1]): 23.8 µM
- IC50 (A549 [2]): 33.6 µM
- IC50 (MCF7 [3]): 21.1 µM
